# Experimental data: patent US5066783A, “Antiviral peptides and means for treating herpes infections” (priority 1988, dated 1991)
# Where “and” joins values, the source holds several entries; their conditions need not be identical. Equal entries are not always repeated. Where a SMILES comes first, the peptide text is derived from it. Where no end group is shown, it is not given here. [ ]: non-standard residue; d: D form. Phe(4-NO2) = N[C@@H](Cc1ccc([N+](=O)[O-])cc1)C(=O)O; Phe(4-NH2) = Nc1ccc(C[C@H](N)C(=O)O)cc1
# Molecular target: T1, herpes simplex viral ribonucleotide reductase (Human herpesvirus 1, UniProt P08543)
# T1 construct: endogenous in cells
# T1 sequence (P08543 whole entry): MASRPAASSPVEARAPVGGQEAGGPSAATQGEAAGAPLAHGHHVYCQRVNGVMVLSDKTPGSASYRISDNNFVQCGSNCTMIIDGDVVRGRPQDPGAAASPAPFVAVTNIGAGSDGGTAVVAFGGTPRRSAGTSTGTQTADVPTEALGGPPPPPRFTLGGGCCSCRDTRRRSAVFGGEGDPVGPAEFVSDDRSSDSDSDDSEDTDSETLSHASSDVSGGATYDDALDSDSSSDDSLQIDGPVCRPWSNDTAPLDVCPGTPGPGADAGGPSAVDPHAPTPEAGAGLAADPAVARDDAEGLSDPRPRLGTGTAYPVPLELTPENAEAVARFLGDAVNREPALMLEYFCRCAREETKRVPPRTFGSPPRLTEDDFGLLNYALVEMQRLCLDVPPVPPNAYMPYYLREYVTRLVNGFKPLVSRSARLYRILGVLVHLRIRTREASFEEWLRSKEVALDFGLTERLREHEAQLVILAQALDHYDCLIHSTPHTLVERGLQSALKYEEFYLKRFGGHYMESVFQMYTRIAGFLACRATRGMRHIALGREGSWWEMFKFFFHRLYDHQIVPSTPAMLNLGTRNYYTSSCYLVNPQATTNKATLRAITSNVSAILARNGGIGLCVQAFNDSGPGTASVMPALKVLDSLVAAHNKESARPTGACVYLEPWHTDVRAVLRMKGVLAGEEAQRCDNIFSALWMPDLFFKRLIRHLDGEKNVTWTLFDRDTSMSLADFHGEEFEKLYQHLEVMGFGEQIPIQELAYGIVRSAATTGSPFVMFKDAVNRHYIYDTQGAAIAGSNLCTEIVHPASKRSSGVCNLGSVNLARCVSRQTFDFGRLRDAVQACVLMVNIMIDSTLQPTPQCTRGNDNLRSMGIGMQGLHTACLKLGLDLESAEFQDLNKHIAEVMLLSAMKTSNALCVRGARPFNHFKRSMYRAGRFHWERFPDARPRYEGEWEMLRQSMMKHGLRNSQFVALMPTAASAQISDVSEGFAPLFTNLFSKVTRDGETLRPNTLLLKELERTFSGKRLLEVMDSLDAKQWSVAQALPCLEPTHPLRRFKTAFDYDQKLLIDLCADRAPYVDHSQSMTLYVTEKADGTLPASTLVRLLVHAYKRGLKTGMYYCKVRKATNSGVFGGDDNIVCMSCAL
# Assay: biochemical
# Type: biochemical, herpes simplex virus
# Conditions: not given
row,Compound,IC50 [µM]
1,Ac-FVINDL-OH [Ac--Phe--Val--Ile--Asn--Asp--Leu--OH],42
2,H-YAPAVINDL-OH [H--Tyr--Ala--Pro--Ala--Val--Ile--Asn--Asp--Leu--OH],37
3,H-YVVNDL-OH [H--Tyr--Val--Val--Asn--Asp--Leu--OH],81
4,H-YAGAVVNDI-OH [H--Tyr--Ala--Gly--Ala--Val--Val--Asn--Asp--Ile--OH],110
5,Ac-YAATVINDL-OH [Ac--Tyr--Ala--Ala--Thr--Val--Ile--Asn--Asp--Leu--OH],15
6,H-YAGAVLDDL-OH [H--Tyr--Ala--Gly--Ala--Val--Leu--Asp--Asp--Leu--OH],90
7,Ac-YVVNDL-OH [Ac--Tyr--Val--Val--Asn--Asp--Leu--OH],31

# Same assay, conditions: 75 μg enzyme preparation (21.6 units mg^-1); mean of four assays
row,Compound,IC50 [µM]
1,CC[C@H](C)[C@H](NC(=O)[C@H](CC(=O)O)NC(=O)[C@H](CC(N)=O)NC(=O)[C@@H](NC(=O)[C@@H](NC(=O)[C@H](C)NC(=O)CNC(=O)[C@H](C)NC(=O)[C@H](Cc1ccc(O)cc1)NC(=O)[C@@H](N)Cc1ccc([N+](=O)[O-])cc1)C(C)C)C(C)C)C(=O)O [H--(4-NO2 -Phe)--Tyr--Ala--Gly--Ala--Val--Val--Asn--Asp--Ile--OH] (H-[Phe(4-NO2)]YAGAVVNDI-OH),6.8
2,H-YAGTVINDL-OH [H--Tyr--Ala--Gly--Thr--Val--Ile--Asn--Asp--Leu--OH],15
3,Ac-Y(Ac)AGFVINDL [Ac--Tyr(OAc)--Ala--Gly--Phe--Val--Ile--Asn--Asp--Leu--OH],14
4,H-HAGAVVNDL-OH [H--His--Ala--Gly--Ala--Val--Val--Asn--Asp--Leu--OH],400
5,CC[C@H](C)[C@H](NC(=O)[C@H](CC(=O)O)NC(=O)[C@H](CC(N)=O)NC(=O)[C@@H](NC(=O)[C@@H](NC(=O)[C@H](C)NC(=O)CNC(=O)[C@H](C)NC(=O)[C@H](Cc1ccc(O)cc1)NC(=O)[C@@H](N)Cc1ccc(N)cc1)C(C)C)C(C)C)C(=O)O [H--(4-NH2 -Phe)--Tyr--Ala--Gly--Ala--Val--Val--Asn--Asp--Ile--OH] (H-[Phe(4-NH2)]YAGAVVNDI-OH),15

# Same assay, conditions: IC50 (concentration producing 50% of the maximal inhibition of enzyme activity)
row,Compound,IC50
1,Ac-YSGTVINDL-OH [Ac--Tyr--Ser--Gly--Thr--Val--Ile--Asn--Asp--Leu--OH],1.9 µM
2,Ac-YAGTVINDL-OH [Ac--Tyr--Ala--Gly--Thr--Val--Ile--Asn--Asp--Leu--OH],2 µM and 5.2 µM

# Same assay, conditions: read-out: IC50 (concentration producing 50% of the maximal inhibition of enzyme activity)
row,Compound,IC50 [µM]
1,CC(=O)N[C@@H](Cc1ccc(O)cc1)C(=O)N[C@@H](C)C(=O)NCC(=O)N[C@@H](C)C(=O)N[C@H](C(=O)N[C@H](C(=O)N[C@@H](CC(N)=O)C(=O)N[C@@H](CC(=O)O)C(=O)N[C@@H](CC(C)C)C(=O)O)C(C)C)C(C)C [Ac--Tyr--Ala--Gly--Ala--Val--Val--Asn--Asp--Leu--OH],20
2,COc1ccc(C[C@H](N)C(=O)N[C@@H](C)C(=O)NCC(=O)N[C@@H](C)C(=O)N[C@H](C(=O)N[C@H](C(=O)N[C@@H](CC(N)=O)C(=O)N[C@@H](CC(=O)O)C(=O)N[C@@H](CC(C)C)C(=O)O)C(C)C)C(C)C)cc1 [H--Tyr(OMe)--Ala--Gly--Ala--Val--Val--Asn--Asp--Leu--OH],88

# Same assay, conditions: read-out: IC50 (concentration producing 50% of the maximal inhibition of enzyme activity); 75 μg enzyme preparation (21.6 units mg^-1); mean of four assays
row,Compound,IC50 [µM]
1,COc1ccc(C[C@H](NC(C)=O)C(=O)N[C@@H](C)C(=O)NCC(=O)N[C@@H](C)C(=O)N[C@H](C(=O)N[C@H](C(=O)N[C@@H](CC(N)=O)C(=O)N[C@@H](CC(=O)O)C(=O)N[C@@H](CC(C)C)C(=O)O)C(C)C)C(C)C)cc1 [Ac--Tyr(OMe)--Ala--Gly--Ala--Val--Val--Asn--Asp--Leu--OH],40
2,Ac-YAVVNDL-OH [Ac--Tyr--Ala--Val--Val--Asn--Asp--Leu--OH],330
3,H-YAGPVVNDL-OH [H--Tyr--Ala--Gly--Pro--Val--Val--Asn--Asp--Leu--OH],48
4,CC(=O)N[C@@H](Cc1ccc(O)cc1)C(=O)N[C@@H](C)C(=O)NCC(=O)N[C@@H](C)C(=O)N[C@H](C(=O)N[C@H](C(=O)N[C@@H](CC(N)=O)C(=O)N[C@@H](CC(=O)O)C(=O)N[C@@H](CC(C)C)C(N)=O)C(C)C)C(C)C [Ac--Tyr--Ala--Gly--Ala--Val--Val--Asn--Asp--Leu--NH2],76
